Common to all, as to design: scale not given: the % may be the effect or the level left
Assay [1] has as its target Serine/threonine-protein kinase 25 (Homo sapiens) (UniProt O00506). Put plainly: Inhibition of human STK25 assessed as enzyme activity at 1 uM using myelin basic protein as substrate preincubated for 20 mins followed by [gamma-33P]-ATP addition and measured after 120 mins by radiometric Hot-SpotSM Kinase assay relative to control.
Assay [2] addresses Casein kinase II subunit alpha (Homo sapiens) (UniProt P68400). Description: Inhibition of human CK2a assessed as enzyme activity at 1 uM using RRRDDDSDDD as substrate preincubated for 20 mins followed by [gamma-33P]-ATP addition and measured after 120 mins by radiometric Hot-SpotSM Kinase assay relative to control.
Assay [3] has as its target Aurora kinase B (Homo sapiens) (UniProt Q96GD4). Description: Inhibition of human Aurora B assessed as enzyme activity at 1 uM using H-LRRASLG as substrate preincubated for 20 mins followed by [gamma-33P]-ATP addition and measured after 120 mins by radiometric Hot-SpotSM Kinase assay relative to control.
Assay [4] has as its target Protein-tyrosine kinase 2-beta (Homo sapiens) (UniProt Q14289). Put plainly: Inhibition of human PYK2 assessed as enzyme activity at 1 uM using poly[Glu:Tyr] (4:1) as substrate preincubated for 20 mins followed by [gamma-33P]-ATP addition and measured after 120 mins by radiometric Hot-SpotSM Kinase assay relative to control.
Assay [5] has as its target RAC-alpha serine/threonine-protein kinase (Homo sapiens) (UniProt P31749). Description: Inhibition of human AKT1 assessed as enzyme activity at 1 uM using KGSGSGRPRTSSFAEG as substrate preincubated for 20 mins followed by [gamma-33P]-ATP addition and measured after 120 mins by radiometric Hot-SpotSM Kinase assay relative to control.
Assay [6] addresses CDK9/Cyclin K (Homo sapiens) (UniProt P50750+O75909). Description: Inhibition of human CDK9/cyclin K assessed as enzyme activity at 1 uM using KTFCGTPEYLAPEVRREPRILSEEEQEMFRDFDYIADWC as substrate preincubated for 20 mins followed by [gamma-33P]-ATP addition and measured after 120 mins by radiometric Hot-SpotSM Kinase assay relative to control. The format is protein-complex assay.

Assay [7] concerns the target T1, Mitogen-activated protein kinase kinase kinase 5 (Homo sapiens) (UniProt Q99683).
T1 sequence (whole entry): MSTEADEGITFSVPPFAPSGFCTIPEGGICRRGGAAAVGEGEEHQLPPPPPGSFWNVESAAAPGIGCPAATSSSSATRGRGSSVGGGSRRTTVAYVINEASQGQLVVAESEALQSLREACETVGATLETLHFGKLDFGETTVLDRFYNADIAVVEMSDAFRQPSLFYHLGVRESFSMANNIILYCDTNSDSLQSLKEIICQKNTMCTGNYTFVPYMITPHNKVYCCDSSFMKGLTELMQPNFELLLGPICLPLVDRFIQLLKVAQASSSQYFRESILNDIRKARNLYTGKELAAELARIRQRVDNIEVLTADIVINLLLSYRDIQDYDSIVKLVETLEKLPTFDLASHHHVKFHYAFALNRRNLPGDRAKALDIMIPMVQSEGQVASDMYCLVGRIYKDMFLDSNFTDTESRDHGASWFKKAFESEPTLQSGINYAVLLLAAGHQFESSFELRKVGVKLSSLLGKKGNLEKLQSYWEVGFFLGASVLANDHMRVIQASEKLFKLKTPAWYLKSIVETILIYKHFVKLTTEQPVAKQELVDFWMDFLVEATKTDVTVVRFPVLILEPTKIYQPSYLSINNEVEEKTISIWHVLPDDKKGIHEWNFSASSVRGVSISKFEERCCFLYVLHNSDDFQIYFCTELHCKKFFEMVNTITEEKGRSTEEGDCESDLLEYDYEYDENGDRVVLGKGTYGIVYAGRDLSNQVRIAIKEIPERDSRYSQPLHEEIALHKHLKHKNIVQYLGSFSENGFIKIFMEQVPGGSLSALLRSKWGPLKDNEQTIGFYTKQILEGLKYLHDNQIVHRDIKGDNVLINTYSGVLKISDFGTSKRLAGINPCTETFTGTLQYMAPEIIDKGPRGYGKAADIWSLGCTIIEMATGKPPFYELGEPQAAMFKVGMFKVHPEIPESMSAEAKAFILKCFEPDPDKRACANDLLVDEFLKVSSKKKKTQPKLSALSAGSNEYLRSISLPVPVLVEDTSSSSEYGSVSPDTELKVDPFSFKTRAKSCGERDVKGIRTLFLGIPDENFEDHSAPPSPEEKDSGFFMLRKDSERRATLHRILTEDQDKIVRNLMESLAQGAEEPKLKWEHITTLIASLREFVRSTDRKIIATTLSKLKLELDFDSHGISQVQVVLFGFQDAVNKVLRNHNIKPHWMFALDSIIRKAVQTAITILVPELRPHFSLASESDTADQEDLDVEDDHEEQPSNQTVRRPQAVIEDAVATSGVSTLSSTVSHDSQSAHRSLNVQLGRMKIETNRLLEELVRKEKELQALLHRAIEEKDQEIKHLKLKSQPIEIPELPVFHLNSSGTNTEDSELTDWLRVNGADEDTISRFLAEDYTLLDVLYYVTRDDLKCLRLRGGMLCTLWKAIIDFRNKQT
Description: Inhibition of human ASK1 assessed as enzyme activity at 1 uM using myelin basic protein as substrate preincubated for 20 mins followed by [gamma-33P]-ATP addition and measured after 120 mins by radiometric Hot-SpotSM Kinase assay relative to control.

The target of assay [8] is Dual specificity testis-specific protein kinase 1 (Homo sapiens) (UniProt Q15569). Description: Inhibition of human TESK1 assessed as enzyme activity at 1 uM using cofilin 2 as substrate preincubated for 20 mins followed by [gamma-33P]-ATP addition and measured after 120 mins by radiometric Hot-SpotSM Kinase assay relative to control.
Sequence of Dual specificity testis-specific protein kinase 1 (Homo sapiens) (Q15569 whole entry, looked up): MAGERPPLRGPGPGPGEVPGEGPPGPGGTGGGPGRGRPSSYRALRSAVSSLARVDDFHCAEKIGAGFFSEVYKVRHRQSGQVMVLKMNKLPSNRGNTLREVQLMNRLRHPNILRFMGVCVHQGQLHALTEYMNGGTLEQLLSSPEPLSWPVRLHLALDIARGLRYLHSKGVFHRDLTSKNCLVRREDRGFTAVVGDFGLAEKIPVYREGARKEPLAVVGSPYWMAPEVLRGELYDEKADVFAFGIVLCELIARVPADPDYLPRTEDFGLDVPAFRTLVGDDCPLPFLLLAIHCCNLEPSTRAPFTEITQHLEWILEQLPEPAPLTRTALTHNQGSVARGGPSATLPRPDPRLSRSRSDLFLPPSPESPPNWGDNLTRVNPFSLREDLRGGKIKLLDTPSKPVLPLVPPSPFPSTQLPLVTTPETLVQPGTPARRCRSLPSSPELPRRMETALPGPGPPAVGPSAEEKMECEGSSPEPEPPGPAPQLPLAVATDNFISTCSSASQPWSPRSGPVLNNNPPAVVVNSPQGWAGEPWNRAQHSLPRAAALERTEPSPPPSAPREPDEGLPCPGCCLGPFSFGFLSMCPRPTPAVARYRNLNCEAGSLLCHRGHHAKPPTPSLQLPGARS

Sequence of Serine/threonine-protein kinase 25 (Homo sapiens) (O00506 whole entry, looked up): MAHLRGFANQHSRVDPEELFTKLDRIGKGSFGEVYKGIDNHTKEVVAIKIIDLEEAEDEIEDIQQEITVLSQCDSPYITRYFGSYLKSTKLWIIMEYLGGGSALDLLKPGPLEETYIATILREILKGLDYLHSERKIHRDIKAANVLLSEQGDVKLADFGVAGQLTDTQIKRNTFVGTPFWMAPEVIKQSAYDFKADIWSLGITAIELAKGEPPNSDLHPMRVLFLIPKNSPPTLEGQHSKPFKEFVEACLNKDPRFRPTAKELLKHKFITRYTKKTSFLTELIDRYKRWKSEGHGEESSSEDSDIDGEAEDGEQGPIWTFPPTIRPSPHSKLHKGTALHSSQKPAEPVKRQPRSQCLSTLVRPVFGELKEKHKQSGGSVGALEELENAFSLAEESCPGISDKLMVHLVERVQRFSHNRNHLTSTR
Sequence of RAC-alpha serine/threonine-protein kinase (Homo sapiens) (P31749 whole entry): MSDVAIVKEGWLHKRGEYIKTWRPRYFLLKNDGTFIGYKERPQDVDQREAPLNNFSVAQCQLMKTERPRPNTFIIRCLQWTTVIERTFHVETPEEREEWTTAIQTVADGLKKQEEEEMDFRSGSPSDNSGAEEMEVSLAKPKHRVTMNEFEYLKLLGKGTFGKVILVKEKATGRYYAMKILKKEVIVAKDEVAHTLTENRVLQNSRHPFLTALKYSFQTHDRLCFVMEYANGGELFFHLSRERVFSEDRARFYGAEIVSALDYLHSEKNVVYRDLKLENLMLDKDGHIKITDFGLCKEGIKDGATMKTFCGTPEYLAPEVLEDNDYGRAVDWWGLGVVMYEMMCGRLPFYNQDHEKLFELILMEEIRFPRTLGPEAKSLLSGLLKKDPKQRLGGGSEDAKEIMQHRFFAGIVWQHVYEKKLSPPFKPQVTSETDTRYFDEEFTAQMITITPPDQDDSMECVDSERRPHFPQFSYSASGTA
Sequence of Aurora kinase B (Homo sapiens) (Q96GD4 whole entry): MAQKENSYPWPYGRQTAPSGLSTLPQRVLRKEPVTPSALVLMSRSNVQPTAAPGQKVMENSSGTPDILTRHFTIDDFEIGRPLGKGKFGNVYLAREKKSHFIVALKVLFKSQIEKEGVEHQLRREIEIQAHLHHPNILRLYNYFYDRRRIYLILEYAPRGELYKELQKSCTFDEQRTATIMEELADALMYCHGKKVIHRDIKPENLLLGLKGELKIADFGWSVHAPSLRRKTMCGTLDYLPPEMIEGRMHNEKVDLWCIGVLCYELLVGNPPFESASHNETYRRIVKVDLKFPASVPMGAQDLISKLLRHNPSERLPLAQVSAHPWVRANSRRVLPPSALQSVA
Sequence of Protein-tyrosine kinase 2-beta (Homo sapiens) (Q14289 whole entry, looked up): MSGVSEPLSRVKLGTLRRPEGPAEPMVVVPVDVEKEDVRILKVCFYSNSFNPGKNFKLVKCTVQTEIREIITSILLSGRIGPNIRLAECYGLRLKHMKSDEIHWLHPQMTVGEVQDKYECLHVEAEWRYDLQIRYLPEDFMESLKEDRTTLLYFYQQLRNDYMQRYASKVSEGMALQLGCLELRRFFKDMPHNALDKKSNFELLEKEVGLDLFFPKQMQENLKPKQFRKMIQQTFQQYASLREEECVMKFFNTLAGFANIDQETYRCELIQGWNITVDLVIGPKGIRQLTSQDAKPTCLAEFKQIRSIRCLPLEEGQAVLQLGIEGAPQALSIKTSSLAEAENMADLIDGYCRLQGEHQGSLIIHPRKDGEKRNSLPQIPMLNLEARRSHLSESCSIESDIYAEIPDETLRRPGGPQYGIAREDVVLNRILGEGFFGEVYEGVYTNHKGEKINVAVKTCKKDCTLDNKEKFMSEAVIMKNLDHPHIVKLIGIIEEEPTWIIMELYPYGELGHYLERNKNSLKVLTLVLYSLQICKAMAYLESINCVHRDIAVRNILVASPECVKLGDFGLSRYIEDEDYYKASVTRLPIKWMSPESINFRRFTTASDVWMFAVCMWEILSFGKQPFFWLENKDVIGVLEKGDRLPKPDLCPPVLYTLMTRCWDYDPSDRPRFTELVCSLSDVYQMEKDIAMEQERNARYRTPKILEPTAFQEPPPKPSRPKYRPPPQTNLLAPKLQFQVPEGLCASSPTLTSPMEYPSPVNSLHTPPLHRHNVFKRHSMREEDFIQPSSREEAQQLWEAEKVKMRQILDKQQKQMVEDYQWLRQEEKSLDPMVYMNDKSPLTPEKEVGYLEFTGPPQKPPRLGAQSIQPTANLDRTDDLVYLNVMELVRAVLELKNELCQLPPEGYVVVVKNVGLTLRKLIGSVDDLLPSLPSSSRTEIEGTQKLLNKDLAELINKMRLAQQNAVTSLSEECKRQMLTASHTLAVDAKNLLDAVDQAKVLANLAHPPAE
Sequence of Casein kinase II subunit alpha (Homo sapiens) (P68400 whole entry, looked up): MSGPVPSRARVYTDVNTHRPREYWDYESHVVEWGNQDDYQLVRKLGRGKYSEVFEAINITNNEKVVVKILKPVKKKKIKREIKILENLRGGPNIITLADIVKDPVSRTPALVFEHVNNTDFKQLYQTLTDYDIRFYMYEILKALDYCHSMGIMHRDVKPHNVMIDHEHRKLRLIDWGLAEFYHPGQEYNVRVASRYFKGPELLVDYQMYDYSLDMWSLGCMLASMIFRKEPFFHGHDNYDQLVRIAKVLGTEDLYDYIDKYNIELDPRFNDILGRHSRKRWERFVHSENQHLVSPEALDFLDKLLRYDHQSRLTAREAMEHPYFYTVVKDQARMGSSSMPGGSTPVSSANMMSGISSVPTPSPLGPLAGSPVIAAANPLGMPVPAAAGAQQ

With `C[C@H](Nc1ncnc2nc[nH]c12)c1cc2cccc(Cl)c2c(=O)n1-c1ccccc1`, the Activity was found to be 97% in assay [1]; 83.6% in assay [2]; 95.6% in assay [3]; 99.5% in assay [4]; 99.6% in assay [5]; 93.1% in assay [6]. The Activity came out at 97.7% in assay [7] and 102% in assay [8].
On to `CC[C@H](Nc1ncnc2[nH]cnc12)c1nc2cccc(F)c2c(=O)n1-c1ccccc1`, for which the Activity in assay [1] was found to be 102%; in assay [2], 96%; in assay [3], 95.6%; in assay [4], 101%; in assay [5], 99%; in assay [6] it was 91.5%. Further, the figures for the Activity in assay [7] and in assay [8] were 102% and 98.7%, respectively.
With `CC(C)Oc1ccc(-c2nn([C@@H](C)c3oc4ccc(F)cc4c(=O)c3-c3cccc(F)c3)c3ncnc(N)c23)cc1F` [UMBRALISIB], the Activity in assay [1] worked out at 103%; in assay [2], 78.2%; in assay [3] it was 97.2%; in assay [4], 102%; in assay [5], 93.3%; in assay [6] it was 88.8%. Also, the Activity amounted to 98.4% in assay [7] and 98% in assay [8].
